Measured values published in patent US5464834A, “N-substituted N'-heterobicyclic piperazines having pharmaceutical activity” (Adir et Compagnie, priority 1992, dated 1995).

Key:
Assay type in all cases: in vivo, rat (male Wistar)
Design in all cases: from tissue; host or cells: whole living male Wistar rats (endogenous receptor)
5HT1A receptors [1] = target: T1, 5HT1A receptors (Rattus norvegicus, UniProt P19327); experiment: Flat body posture (FBP), agonist (alone) and antagonist (vs 8-OH-DPAT); conditions: for ED50: rat, sc
T1 sequence (P19327 1-422): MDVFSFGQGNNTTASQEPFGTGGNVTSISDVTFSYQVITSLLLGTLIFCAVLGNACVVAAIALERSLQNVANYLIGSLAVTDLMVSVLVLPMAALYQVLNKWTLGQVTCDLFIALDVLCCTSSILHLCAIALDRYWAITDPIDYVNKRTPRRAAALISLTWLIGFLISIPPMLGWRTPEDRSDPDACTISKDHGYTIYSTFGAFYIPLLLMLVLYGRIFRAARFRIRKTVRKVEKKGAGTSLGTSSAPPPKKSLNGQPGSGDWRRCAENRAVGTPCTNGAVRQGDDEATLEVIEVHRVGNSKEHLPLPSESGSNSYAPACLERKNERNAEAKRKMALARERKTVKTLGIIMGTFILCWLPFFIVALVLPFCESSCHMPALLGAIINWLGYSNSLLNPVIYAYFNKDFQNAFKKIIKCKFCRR
Experimental: (§1) The tests were carried out using male Wistar rats weighing 200 to 220 g having free access to their food and to their drinking water in standard cages.
(§2) The animals are isolated individually for the tests for hypothermia, corticosterone secretion and flat body posture, or combined in groups of three for the tailflick test.
(§3) The compounds to be studied were administered by the subcutaneous route (s.c.) 60 minutes before the beginning of the test, that is to say 30 minutes before the solvent (agonist responses) or the 8-OH-DPAT (antagonist responses).
(§4) In all of the tests the solvent is used in parallel as a control. The animals were left to rest in their cage during the period between the injections and the evaluation. For the agonist studies, the solvent was administered at 1 ml/kg s.c. 30 minutes before the beginning of the test. For the antagonist studies, doses of 8-OH-DPAT that induce sub-maximal responses were chosen, that is doses of 0.63, 0.16, 0.16 and 0.16 mg/kg s.c. for, respectively, the tail flick test, flat body posture test, corticosterone secretion test and hypothermia test.
(§5) The same animals were used to evaluate the influence of the compounds studied on FBP and on the determination of the plasma concentration of CS. All of the tests were carried out in the morning between 10.30 and 12.300 that is to say when the circadian levels of CS are lowest.
25 minutes after the treatment (that is to say 5 minutes before decapitation) the animals are observed in their cages and the presence or absence of FBP is noted.
(§6) The presence of FBP is defined by a characteristic posture of the animal. That posture is in the ventral decubitus position with the posterior limbs clearly extended. 5 minutes after the observation of FBP, the animals are decapitated and the blood from the trunk is collected in cooled tubes containing 50 μl of a 10% EDTA solution. After centrifugation at 4000 revs/min, the plasma is removed and stored at -30° C. until determination.
(§7) In general, after variance analysis, the results are subjected to the Dunett test. The results are taken as significant if p <0.05.
For the dose-response for the induction and inhibition of FBP, the ED50 values (doses at which 50% of the animals show a response) were calculated by the Litchfield and Wilcoxon method.
(§8) The doses of the compounds tested are all expressed in base terms. Unless specified otherwise, all of the compounds were dissolved in sterile water (to which if necessary a few drops of lactic acid were added) and administered at a volume of 1 ml/kg s.c.

5HT1A receptors [2] = target: T1, 5HT1A receptors; experiment: Spontaneous tail flick (STF) test, agonist (alone) and antagonist (vs 8-OH-DPAT)
Experimental: as §1, §2, §3, §4
The tail flicks were determined on the animals in horizontal opaque plastics cylinders with the tail of the animals hanging freely on the edge of the laboratory work bench. After allowing 5 minutes for adaptation, the number of movements made in 5 minutes was recorded. An STF is defined as being an elevation of the tail to a level higher than that of the axis of the body [Millan M. J. et al., J. Pharmacol. Exp. Ther., 256, 973-982 (1990)].
as §7, §8

5HT1A receptors [3] = target: T1, 5HT1A receptors; experiment: Body temperature / hypothermia, agonist (alone) and antagonist (vs 8-OH-DPAT)
Experimental: as §1, §2, §3, §4
The rats are immobilised and a lubricated digital thermometer (Termistroprobe of Testotherm, Basle, Switzerland) is inserted into the rectum to a depth of 5 cm. 30 seconds after insertion, the temperature is read on a digital scale. The percentage inhibition is calculated using the formula given above.
as §7, §8

5HT1A receptors [4] = target: T1, 5HT1A receptors; experiment: Corticosterone secretion (CS), agonist (alone) and antagonist (vs 8-OH-DPAT)
Experimental: as §1, §2, §3, §4, §5, §6
The CS was determined by a radio-competitive determination for a plasma protein that binds the CS: transcortine. The latter is obtained from a monkey serum. The separation of the CS-transcortine complexes from the free CS was carried out by means of a solution of dextran and active carbon. The detection limit was 50 pg/tube. The intra- and inter-experiment variations in determination were 5 and 15% respectively [cf Rivet J. M. et al, Eur. J. Pharmacol., 183,634-635 (1990)].
The CS base rates in the plasma never being zero, the following formula was used to calculated the percentage inhibition of plasma CS induced by 8-OH-DPAT: [formula]
as §7, §8

[5] = agonist test, compound alone s.c., minimum effective dose vs control

ED50 (5HT1A receptors [1]; agonist test, compound alone s.c., read-out: FBP ED50 (95% CL) alone): > 10 mg/kg | ED50 (5HT1A receptors [1]; antagonist test, s.c., vs 8-OH-DPAT 0.16 mg/kg s.c., read-out: FBP ID50 (95% CL) + DPAT): 0.48 mg/kg | % MPA (% maximum possible antagonism), FBP (5HT1A receptors [1]; vs 8-OH-DPAT 0.16 mg/kg s.c.): 100% | STFs MED alone (5HT1A receptors [2]; [5]): > 10.0 mg/kg | ED50 (5HT1A receptors [2]; rat, sc, antagonist test, s.c., vs 8-OH-DPAT 0.63 mg/kg s.c., read-out: STFs ID50 (95% CL) + DPAT): 0.12 mg/kg | % MPA (% maximum possible antagonism), STFs (5HT1A receptors [2]; vs 8-OH-DPAT 0.63 mg/kg s.c.): 92% | HYPOTHERMIA MED alone (5HT1A receptors [3]; [5]): 10.0 mg/kg | ED50 (5HT1A receptors [3]; rat, sc, antagonist test, s.c., vs 8-OH-DPAT 0.16 mg/kg s.c., read-out: HYPOTHERMIA ID50 (95% CL) + DPAT): 0.16 mg/kg | % MPA (% maximum possible antagonism), HYPOTHERMIA (5HT1A receptors [3]; vs 8-OH-DPAT 0.16 mg/kg s.c.): 98% | CS secretion MED alone (5HT1A receptors [4]; [5]): 10.0 mg/kg | ED50 (5HT1A receptors [4]; rat, sc, antagonist test, s.c., vs 8-OH-DPAT 0.16 mg/kg s.c., read-out: CS secretion ID50 (95% CL) + DPAT): 0.43 mg/kg | % MPA (% maximum possible antagonism), CS secretion (5HT1A receptors [4]; vs 8-OH-DPAT 0.16 mg/kg s.c.): 100%
Structure (SMILES): c1cc2c(c(N3CCN(CCCc4ccsc4)CC3)c1)OCCO2 [Example 1, 4-(Benzodioxan-5-yl)-1-[3-(thiophen-3-yl)propyl]piperazine]
